# US6743753B2, “Herbicidal compositions” (priority 1998, dated 2004)
# Legend:
# Assay type in all cases: in vivo
# Conditions in all cases: 28 DAT
# [1] = tested on: Leptochloa chinensis (LEFCH); assay: Post-emergence treatment of LEFCH, visual assessment of weed control
# Source text: (§1) Seed of various weed species were sown and grown up to a 2-4 leaves stage. The said weeds are Echinochloa crus-galli (hereafter ECGCH), Leptochloa chinensis (hereafter LEFCH), Monochoria vaginalis (hereafter MOOVA) and Cyperus difformis (hereafter CYPDI).
# (§2) Mixtures of pyribenzoxim and a partner herbicide were applied post emergence in a water diluted form using a laboratory sprayer. A visual assessment was made 28 days after treatment (DAT).
# (§3) In the tables that follow ‘dose’ represents the dose rate in grammes per hectare of the active ingredient used; the figures for the weed control are percentage reductions in growth when compared with untreated controls; and CpdA represents pyribenzoxim.
# [2] = tested on: Monochoria vaginalis (MOOVA); assay: Post-emergence treatment of MOOVA, visual assessment of weed control
# Source text: as §1, §2, §3
# [3] = tested on: Cyperus difformis (CYPDI); assay: Post-emergence treatment of CYPDI, visual assessment of weed control
# Source text: as §1, §2, §3
# [4] = tested on: Echinochloa crus-galli (ECGCH); assay: Post-emergence treatment of ECGCH, visual assessment of weed control
# Source text: as §1, §2, §3
smiles,measurement,setting,value
"CC(Oc1ccc(Oc2nc3ccc(Cl)cc3o2)cc1)C(=O)O (racemic) [fenoxaprop, [(±)-2-[4-(6-chloro-1,3-benzoxazol-2-yloxy)phenoxy]propionic acid]","weed control, percentage reduction in growth vs untreated controls","[1]; Table 2, fenoxaprop 15 g/ha alone",0%
same,"weed control, percentage reduction in growth vs untreated controls","[1]; Table 2, fenoxaprop 30 g/ha alone",0%
same,"weed control, percentage reduction in growth vs untreated controls","[1]; Table 2, fenoxaprop 60 g/ha alone",0%
same,"weed control, percentage reduction in growth vs untreated controls","[2]; Table 7, MOOVA (2 leaf), fenoxaprop 15 g/ha alone",0%
same,"weed control, percentage reduction in growth vs untreated controls","[2]; Table 7, MOOVA (2 leaf), fenoxaprop 30 g/ha alone",0%
same,"weed control, percentage reduction in growth vs untreated controls","[2]; Table 7, MOOVA (2 leaf), fenoxaprop 60 g/ha alone",30%
same,"weed control, percentage reduction in growth vs untreated controls","[2]; Table 7, MOOVA (2 leaf), fenoxaprop 120 g/ha alone",70%
same,"weed control, percentage reduction in growth vs untreated controls","[3]; Table 10, fenoxaprop 30 g/ha alone",0%
same,"weed control, percentage reduction in growth vs untreated controls","[3]; Table 10, fenoxaprop 60 g/ha alone",0%
"COc1cc(OC)nc(Oc2cccc(Oc3nc(OC)cc(OC)n3)c2C(=O)ON=C(c2ccccc2)c2ccccc2)n1 [CpdA, benzophenone O-{2,6-bis[(4,6-dimethoxypyrimidyl)oxy]benzoyl}oxime]","weed control, percentage reduction in growth vs untreated controls","[1]; Table 2, CpdA 15 g/ha alone",0%
same,"weed control, percentage reduction in growth vs untreated controls","[1]; Table 2, CpdA 30 g/ha alone",30%
same,"weed control, percentage reduction in growth vs untreated controls","[1]; Table 2, CpdA 60 g/ha alone",30%
same,"weed control, percentage reduction in growth vs untreated controls","[1]; Table 3, CpdA 15 g/ha alone",0%
same,"weed control, percentage reduction in growth vs untreated controls","[1]; Table 3, CpdA 30 g/ha alone",30%
same,"weed control, percentage reduction in growth vs untreated controls","[1]; Table 3, CpdA 60 g/ha alone",30%
same,"weed control, percentage reduction in growth vs untreated controls","[1]; Table 4, LEFCH (2 leaf), CpdA 15 g/ha alone",50%
same,"weed control, percentage reduction in growth vs untreated controls","[1]; Table 5, LEFCH (2 leaf), CpdA 7.5 g/ha alone",30%
same,"weed control, percentage reduction in growth vs untreated controls","[1]; Table 5, LEFCH (2 leaf), CpdA 15 g/ha alone",50%
same,"weed control, percentage reduction in growth vs untreated controls","[1]; Table 6, LEFCH (2 leaf), CpdA 7.5 g/ha alone",30%
same,"weed control, percentage reduction in growth vs untreated controls","[1]; Table 6, LEFCH (2 leaf), CpdA 15 g/ha alone",50%
same,"weed control, percentage reduction in growth vs untreated controls",[4]; CpdA 7.5 g/ha alone,20%
same,"weed control, percentage reduction in growth vs untreated controls","[2]; Table 7, MOOVA (2 leaf), CpdA 15 g/ha alone",0%
same,"weed control, percentage reduction in growth vs untreated controls","[2]; Table 7, MOOVA (2 leaf), CpdA 30 g/ha alone",70%
same,"weed control, percentage reduction in growth vs untreated controls","[2]; Table 8, MOOVA (2 leaf), CpdA 15 g/ha alone",100%
same,"weed control, percentage reduction in growth vs untreated controls","[2]; Table 8, MOOVA (2 leaf), CpdA 30 g/ha alone",100%
same,"weed control, percentage reduction in growth vs untreated controls","[2]; Table 9, MOOVA (2 leaf), CpdA 7.5 g/ha alone",100%
same,"weed control, percentage reduction in growth vs untreated controls","[3]; Table 10, CpdA 15 g/ha alone",60%
same,"weed control, percentage reduction in growth vs untreated controls","[3]; Table 11, CpdA 7.5 g/ha alone",0%
"COc1cc(OC)nc(NC(=O)NS(=O)(=O)Cc2ccccc2C(=O)O)n1 [bensulfuron, α-(4,6-dimethoxypyrimidin-2-ylcarbamoylsulfamoyl)-o-toluic acid]","weed control, percentage reduction in growth vs untreated controls","[1]; Table 4, LEFCH (2 leaf), bensulfuron 25 g/ha alone",0%
same,"weed control, percentage reduction in growth vs untreated controls","[1]; Table 4, LEFCH (2 leaf), bensulfuron 50 g/ha alone",0%
same,"weed control, percentage reduction in growth vs untreated controls",[4]; bensulfuron 6.5 g/ha alone,30%
same,"weed control, percentage reduction in growth vs untreated controls",[4]; bensulfuron 13 g/ha alone,50%
same,"weed control, percentage reduction in growth vs untreated controls",[4]; bensulfuron 25 g/ha alone,70%
"CC(C)N1C(=O)c2ccccc2NS1(=O)=O [bentazone, 3-isopropyl-1H-2,1,3-benzothiadiazin-4(3H)-one 2,2-dioxide]","weed control, percentage reduction in growth vs untreated controls","[1]; Table 3, bentazone 375 g/ha alone",0%
same,"weed control, percentage reduction in growth vs untreated controls","[1]; Table 3, bentazone 750 g/ha alone",20%
same,"weed control, percentage reduction in growth vs untreated controls","[1]; Table 3, bentazone 1500 g/ha alone",20%
same,"weed control, percentage reduction in growth vs untreated controls","[3]; Table 11, bentazone 375 g/ha alone",80%
same,"weed control, percentage reduction in growth vs untreated controls","[3]; Table 11, bentazone 750 g/ha alone",80%
"Cc1ccc(C(=O)COc2c(C(=O)c3ccc(Cl)c(C)c3Cl)c(C)nn2C)cc1 [benzofenap, 2-[4-(2,4-dichloro-m-toluoyl)-1,3-dimethylpyrazol-5-yloxy]-4-′methylacetophenone]","weed control, percentage reduction in growth vs untreated controls","[1]; Table 6, LEFCH (2 leaf), benzofenap 600 g/ha alone",10%
same,"weed control, percentage reduction in growth vs untreated controls","[1]; Table 6, LEFCH (2 leaf), benzofenap 1200 g/ha alone",20%
same,"weed control, percentage reduction in growth vs untreated controls","[2]; Table 9, MOOVA (2 leaf), benzofenap 150 g/ha alone",0%
same,"weed control, percentage reduction in growth vs untreated controls","[2]; Table 9, MOOVA (2 leaf), benzofenap 300 g/ha alone",0%
